pEC50: −log10 of the molar value.
Experiments:
PPARδ-RXRα heterodimer = target: T1, PPARδ-RXRα heterodimer (Homo sapiens, UniProt Q03181); assay: PPARδ-RXRα heterodimer ligand activity, luciferase reporter in COS-1 transformant (Test Example 4); type: cell-based; details: COS-1 transformant (hPPARδ, hRXRα, reporter), 36-48 hours, concentration for 50% of the maximum fold induction
T1 construct: expressed in transfected cells; host or cells: COS-1
T1 sequence (Q03181 1-441): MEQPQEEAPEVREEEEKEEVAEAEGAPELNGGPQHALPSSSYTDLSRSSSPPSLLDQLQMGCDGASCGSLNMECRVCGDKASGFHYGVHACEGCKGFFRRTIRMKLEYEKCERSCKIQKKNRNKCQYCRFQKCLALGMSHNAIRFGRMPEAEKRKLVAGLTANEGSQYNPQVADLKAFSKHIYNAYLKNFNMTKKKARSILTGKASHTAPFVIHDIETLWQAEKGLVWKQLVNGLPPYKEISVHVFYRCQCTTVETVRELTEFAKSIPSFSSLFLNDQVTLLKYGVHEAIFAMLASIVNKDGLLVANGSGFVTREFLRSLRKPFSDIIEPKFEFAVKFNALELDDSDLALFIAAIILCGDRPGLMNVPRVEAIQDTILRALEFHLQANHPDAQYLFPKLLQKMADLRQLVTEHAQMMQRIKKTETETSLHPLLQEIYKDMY
T1 sequence (P19793 1-462 partner): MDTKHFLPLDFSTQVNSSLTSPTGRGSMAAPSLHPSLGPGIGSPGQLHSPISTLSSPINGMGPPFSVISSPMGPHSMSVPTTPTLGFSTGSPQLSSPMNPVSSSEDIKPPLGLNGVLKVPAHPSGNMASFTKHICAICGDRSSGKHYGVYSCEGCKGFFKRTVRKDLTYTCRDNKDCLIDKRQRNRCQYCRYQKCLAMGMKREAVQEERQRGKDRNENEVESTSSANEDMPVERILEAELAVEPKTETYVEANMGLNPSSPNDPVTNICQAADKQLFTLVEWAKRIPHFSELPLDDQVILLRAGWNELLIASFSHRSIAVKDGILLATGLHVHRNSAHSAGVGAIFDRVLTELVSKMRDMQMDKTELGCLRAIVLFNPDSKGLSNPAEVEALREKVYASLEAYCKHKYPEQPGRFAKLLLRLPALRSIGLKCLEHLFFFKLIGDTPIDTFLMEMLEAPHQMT
Method: The transformant obtained in Reference Example 9a was suspended in DMEM medium (produced by Life Technologies, Inc., USA) containing 0.1% fatty acid-free bovine serum albumin (BSA) (produced by Wako Pure Chemical Industries, Ltd.), and inoculate to each well of a 96-well white plate (produced by Corning Costar Corporation, USA) by 80 μl at 1×10^4 cells/well. Then the test compound (20 μl) was added and cultured at 37° C. under 5% CO2 for 36-48 hours. After removing the medium from the 96-well white plate, 40 μl of PIKKAGENE LT 7.5 (produced by Wako Pure Chemical Industries, Ltd.) diluted twice with HBSS (HANKS' BALANCED SALT SOLUTION)(produced by BIO WHITTAKER Inc., USA), was added. After stirring, the luciferase activity was determined using 1420 ARVO Multilabel Counter (produced by PerkinElmer Inc., USA).
A fold induction was calculated based on the luciferase activity of each test compound by taking the luciferase activity in the non-treatment group as 1. The values of the test compound concentration and the fold induction were analyzed using PRISM (produced by GraphPad Software Inc. USA) to calculate the EC50 values, the effective concentration of a test compound for 50% of the maximum fold induction.
COS-1 cells were inoculated to a 150 cm^2 cell culture flask (produced by Corning Costar Corporation, USA) at the density of 5×10^6 cells/50 ml, and cultured at 37° C. under 5% CO2 conditions for 24 hours. Subsequently, a DNA was introduced into the cell under the condition shown below using Lipofectamine (produced by Invitrogen, USA).
First, Lipofectamine (125 μl), PLUS Reagent (100 μl, produced by Invitrogen, USA), plasmid pMCMVneo-hPPARδ (2.5 μg) obtained in Reference Example 3a, plasmid pMCMVneo-hRXRα (2.5 μg) obtained in Reference Example 4a and reporter plasmid pGL3-4ERPP-TK neo (5 μg) obtained in Reference Example 5a, and pRL-tk (5 μg, produced by Promega, USA) were mixed with opti-MEM (5 ml, produced by Invitrogen, USA) to give a transfection mixture.
Then, the above-mentioned transfection mixture and opti-MEM (20 ml) were added to COS-1 cells washed with opti-MEM, and the cells were cultured at 37° C. under 5% CO2 conditions for 3 hours. DMEM medium (25 ml, produced by Life Technologies, Inc., USA) containing 0.1% fatty acid-free bovine serum albumin (BSA) (produced by Wako Pure Chemical Industries, Ltd.) was added to the obtained COS-1 cells, and the cells were cultured at 37° C. under 5% CO2 conditions for 18-24 hours to give a transformant.

Row | pEC50 (PPARδ-RXRα heterodimer) | melting point [°C] | SMILES
1 | 8.80 | 126 to 127 | CCCOc1cc(OCCCc2cn(-c3ccc(C(F)(F)F)cn3)nc2OCC)ccc1CCC(=O)O [Example 117, 3-[4-(3-{3-ethoxy-1-[5-(trifluoromethyl)-2-pyridinyl]-1H-pyrazol-4-yl}propoxy)-2-propoxyphenyl]propanoic acid]
2 | 8.31 | 158 to 159 | COc1cc(OCc2cn(-c3ccc(C(F)(F)F)cn3)nc2C)ccc1CCC(=O)O [Example 122, 3-[2-methoxy-4-({3-methyl-1-[5-(trifluoromethyl)-2-pyridyl]-1H-pyrazol-4-yl}methoxy)phenyl]propionic acid]
3 | 8.54 | 144 to 145 | Cc1cc(OCc2cn(-c3ccc(C(F)(F)F)cn3)nc2C)ccc1CCC(=O)O [Example 123, 3-[2-methyl-4-({3-methyl-1-[5-(trifluoromethyl)-2-pyridyl]-1H-pyrazol-4-yl}methoxy)phenyl]propionic acid]
4 | 8.66 | 129 to 130 | CCOc1cc(OCCCc2cn(-c3ccc(C(F)(F)F)cn3)nc2C)ccc1CCC(=O)O [Example 126, 3-[2-ethoxy-4-(3-{3-methyl-1-[5-(trifluoromethyl)-2-pyridyl]-1H-pyrazol-4-yl}propoxy)phenyl]propionic acid]
5 | 8.41 | 96 to 97 | Cc1nn(-c2ccc(C(F)(F)F)cn2)cc1CCCOc1cccc(CC(=O)O)c1 [Example 127, [3-(3-{3-methyl-1-[5-(trifluoromethyl)-2-pyridyl]-1H-pyrazol-4-yl}propoxy)phenyl]acetic acid]
6 | 8.31 | 136 to 137 | COc1cc(CCC(=O)O)ccc1OCCCc1cn(-c2ccc(C(F)(F)F)cn2)nc1C [Example 129, 3-[3-methoxy-4-(3-{3-methyl-1-[5-(trifluoromethyl)-2-pyridyl]-1H-pyrazol-4-yl}propoxy)phenyl]propionic acid]
7 | 8.57 | 131 to 132 | CCOc1nn(-c2ccc(C(F)(F)F)cn2)cc1CCCOc1ccc(CCC(=O)O)cc1OC [Example 150, 3-[4-(3-{3-ethoxy-1-[5-(trifluoromethyl)-2-pyridyl]-1H-pyrazol-4-yl}propoxy)-3-methoxyphenyl]propanoic acid]
8 | 8.00 | 145 to 146 | CCOc1cc(OCCCc2cn(-c3ccc(C(F)(F)F)cn3)nc2OC)ccc1CCC(=O)O [Example 152, 3-[2-ethoxy-4-(3-{3-methoxy-1-[5-(trifluoromethyl)-2-pyridyl]-1H-pyrazol-4-yl}propoxy)phenyl]propanoic acid]
9 | 8.72 | 112 to 113 | CCCOc1nn(-c2ccc(C(F)(F)F)cn2)cc1CCCOc1ccc(CCC(=O)O)c(OCC)c1 [Example 153, 3-[2-ethoxy-4-(3-{3-propoxy-1-[5-(trifluoromethyl)-2-pyridyl]-1H-pyrazol-4-yl}propoxy)phenyl]propanoic acid]
10 | 8.82 | 128 to 129 | CCOc1cc(OCCCc2cn(-c3ccc(C(F)(F)F)cn3)nc2OC(C)C)ccc1CCC(=O)O [Example 154, 3-[2-ethoxy-4-(3-{3-isopropoxy-1-[5-(trifluoromethyl)-2-pyridyl]-1H-pyrazol-4-yl}propoxy)phenyl]propanoic acid]

The remaining lines, values behind:

Row | SMILES | pEC50 (PPARδ-RXRα heterodimer) | melting point [°C]
11 | CCOc1nn(-c2ccc(C(F)(F)F)cc2)cc1CCCOc1cccc(CC(=O)O)c1 [Example 113, [3-(3-{3-ethoxy-1-[4-(trifluoromethyl)phenyl]-1H-pyrazol-4-yl}propoxy)phenyl]acetic acid] | 8.32 | 108 to 109
12 | CCCCOc1cc(OCCCc2cn(-c3ccc(C(F)(F)F)cn3)nc2OCC)ccc1CCC(=O)O [Example 118, 3-[2-butoxy-4-{3-(3-ethoxy-1-[5-(trifluoromethyl)-2-pyridinyl]-1H-pyrazol-4-yl}propoxy)phenyl]propanoic acid] | 8.14 | 123 to 124
13 | O=C(O)Cc1cccc(OCCCc2cn(-c3ccc(C(F)(F)F)cn3)nc2-c2ccccc2)c1 [Example 124, [3-(3-{3-phenyl-1-[5-(trifluoromethyl)-2-pyridyl]-1H-pyrazol-4-yl}propoxy)phenyl]acetic acid] | 8.62 | 132 to 133
14 | CCOc1nn(-c2ccc(C(F)(F)F)cn2)cc1CCCOc1cc(CC(=O)O)ccc1OC [Example 131, [3-(3-{3-ethoxy-1-[5-(trifluoromethyl)-2-pyridyl]-1H-pyrazol-4-yl}propoxy)-4-methoxyphenyl]acetic acid] | 8.57 | 142 to 143
15 | CCOc1nn(-c2ccc(C(F)(F)F)cn2)cc1CCCOc1c(CC(=O)O)cccc1OC [Example 146, [2-(3-{3-ethoxy-1-[5-(trifluoromethyl)-2-pyridyl]-1H-pyrazol-4-yl}propoxy)-3-methoxyphenyl]acetic acid] | 8.24 | 122 to 123
16 | CCCCOc1nn(-c2ccc(C(F)(F)F)cn2)cc1CCCOc1ccc(CCC(=O)O)c(OCC)c1 [Example 155, 3-[4-(3-{3-butoxy-1-[5-(trifluoromethyl)-2-pyridyl]-1H-pyrazol-4-yl}propoxy)-2-ethoxyphenyl]propanoic acid] | 8.42 | 102 to 103
17 | CCCc1nn(-c2ccc(C(F)(F)F)cn2)cc1CCCOc1ccc(C(C)(C)C(=O)O)cc1 [Example 157, 2-methyl-2-[4-(3-{3-propyl-1-[5-(trifluoromethyl)-2-pyridyl]-1H-pyrazol-4-yl}propoxy)phenyl]propanoic acid] | 8.33 | 84 to 85
18 | CCOc1nn(-c2ccc(C(F)(F)F)cn2)cc1CCCOc1cc(CC(=O)O)cc(OC)c1 [Example 168, [5-(3-{3-ethoxy-1-[5-(trifluoromethyl)-2-pyridyl]-1H-pyrazol-4-yl}propoxy)-3-methoxyphenyl]acetic acid] | 8.80 | 125 to 126
19 | CCCc1nn(-c2ccc(C(F)(F)F)cn2)cc1CCCOc1cc(CC(=O)O)cc(OC)c1 [Example 169, [3-methoxy-5-(3-{3-propyl-1-[5-(trifluoromethyl)-2-pyridyl]-1H-pyrazol-4-yl}propoxy)phenyl]acetic acid] | 8.24 | 139 to 140
20 | CCOc1nn(-c2ccc(C(F)(F)F)cc2)cc1CCCOc1ccccc1CC(=O)O [Example 182, [2-(3-{3-ethoxy-1-[4-(trifluoromethyl)phenyl]-1H-pyrazol-4-yl}propoxy)phenyl]acetic acid] | 8.25 | 114 to 115
21 | CCOc1nn(-c2ccc(C(F)(F)F)cn2)cc1CCCOc1cccc(CC(=O)O)c1F [Example 186, [3-(3-{3-ethoxy-1-[5-(trifluoromethyl)-2-pyridyl]-1H-pyrazol-4-yl}propoxy)-2-fluorophenyl]acetic acid] | 8.72 | 120 to 121

— US20060148858A1, “1, 2-Azole derivatives with hypoglycemic and hypolipidemic activity” (priority 2002, published 2006)
